Reference: patent US9023809B2, “Phenylalanine dipeptide derivatives, compositions and use thereof” (The Key Laboratory of Chemistry For Natural Products of …, priority 2008, dated 2015)
In brackets after ≈: the same amount, converted by molar mass. Where a SMILES comes first, the peptide text is derived from it. [ ]: non-standard residue; d: D form. The star is where a group is joined. Phe(4-NO2) = N[C@@H](Cc1ccc([N+](=O)[O-])cc1)C(=O)O; Phe(4-NH2) = Nc1ccc(C[C@H](N)C(=O)O)cc1; 4Abz = Nc1ccc(C(=O)O)cc1; Propionyl = CCC(=O)*; Bz = O=C(c1ccccc1)*

Experiments:
2.2.15 cells = experiment: Cytotoxicity (TC50, median toxic concentration) in 2.2.15 cells; assay type: cell-based
Description: (§1) Cell control wells were simultaneously set up. […] IC50 and SI were calculated, respectively.

HBV DNA replication = experiment: In vitro anti-HBV: inhibition of HBV DNA replication in 2.2.15 cells (dot blot); assay type: cell-based, hepatitis B virus; settings: day 8, dot blot; for IC50: Hepatitis B virus, 192 h
Description: as §1

| SMILES | TC50 (2.2.15 cells) | IC50 (HBV DNA replication) | melting point | Inhibition of DNA Replication IC50 (HBV DNA replication) |
| --- | --- | --- | --- | --- |
| COC(=O)[C@H](Cc1ccc(OC(C)=O)cc1)NC(=O)[C@H](Cc1ccc(NC(C)=O)cc1)NC(=O)c1ccc(C)cc1 [Example 68, methyl N-[N-(4-methyl-benzoyl)-4-acetamido-L-phenylalanyl]-O-acetyl-L-tyrosinate] | 388.03 µg/mL (≈ 693 µM) | 13.1 µg/mL (≈ 23.4 µM) | 222 to 223 °C |  |
| COC(=O)[C@H](Cc1ccc(O)cc1)NC(=O)[C@H](Cc1ccc([N+](=O)[O-])cc1)NC(=O)c1ccccc1 [Example 14, methyl N-(N-benzoyl-4-nitro-L-phenylalanyl)-L-tyrosinate] (Bz-[Phe(4-NO2)]-Tyr-OMe) | 53.42 µg/mL (≈ 109 µM) | 1.16 µg/mL (≈ 2.36 µM) | 200 to 202 °C |  |
| CC(=O)Nc1ccc(C[C@H](NC(=O)c2ccccc2)C(=O)N[C@@H](Cc2ccccc2)C(=O)O)cc1 [Example 87, N-(N-benzoyl-4-acetamido-L-phenylalanyl)-L-phenylalanine] (Bz-[Phe(4-NH2)](Ac)-Phe-OH) | 43.11 µg/mL (≈ 91 µM) | 1.81 µg/mL (≈ 3.82 µM) | 233.5 to 235.5 °C |  |
| CC(=O)Nc1ccc(C(=O)N[C@@H](Cc2ccccc2)C(=O)N[C@H](CO)Cc2ccccc2)cc1 [Example 39, N-[N-(4-acetamido-benzoyl)-L-phenylalanyl]-L-phenylalaninol] | 14.37 µg/mL (≈ 31.3 µM) | 0.34 µg/mL (≈ 0.74 µM) | 193 to 195 °C |  |
| CCCCOc1ccc(C[C@H](NC(=O)[C@H](Cc2ccccc2)NC(=O)c2ccccc2)C(=O)OC)cc1 [Example 72, methyl N-(N-benzoyl-L-phenylalanyl)-O-n-butyl-L-tyrosinate] | 577.35 µg/mL (≈ 1150 µM) | 87.5 µg/mL (≈ 174 µM) | 177 to 178 °C |  |
| COC(=O)[C@H](Cc1ccccc1)NC(=O)[C@H](Cc1ccc(O)cc1)NC(=O)c1ccccc1Cl [Example 23, methyl N-(N-2-chloro-benzoyl-L-tyrosyl)-L-phenylalaninate] | 240.38 µg/mL (≈ 500 µM) | 52 µg/mL (≈ 108 µM) | 175.5 to 177.5 °C |  |
| Cc1cccc(C(=O)N[C@@H](Cc2ccccc2)C(=O)N[C@H](CO)Cc2ccccc2)c1 [Example 05, N-(N-3-methyl-benzoyl-L-phenylalanyl)-L-phenylalaninol] | 77.04 µg/mL (≈ 185 µM) | 25.2 µg/mL (≈ 60.5 µM) | 177 to 178.5 °C |  |
| COc1ccc(C[C@H](NC(=O)[C@H](Cc2ccccc2)NC(=O)c2ccccc2)C(=O)[O-])cc1.[Na+] [Example 79, N-(N-benzoyl-L-phenylalanyl)-O-methyl-L-tyrosine sodium salt] (Bz-Phe-Tyr(Me)-OH) | 86.23 µg/mL | 9.59 µg/mL |  |  |
| COC(=O)[C@H](Cc1ccccc1)NC(=O)[C@H](Cc1ccc(OC(C)=O)c(NC(C)=O)c1)NC(=O)c1ccccc1 [Example 63, methyl N-(N-benzoyl-O-acetyl-3-acetamido-L-tyrosyl)-L-phenylalaninate] | 358.02 µg/mL (≈ 656 µM) | 53.1 µg/mL (≈ 97.4 µM) |  |  |
| COC(=O)[C@H](Cc1ccccc1)NC(=O)[C@H](Cc1ccccc1)NC(=O)c1ccc(OCCN(C)C)cc1 [Example 78, methyl N-[N-4-(2-dimethylamino-ethoxyl)-benzoyl-L-phenylalanyl]-L-phenylalaninate] | 257.31 µg/mL (≈ 497 µM) |  |  | 54.28 µg/mL |
| CC(=O)OC[C@H](Cc1ccccc1)NC(=O)[C@H](Cc1ccccc1)NC(=O)c1ccccc1 [Example 55, N-(N-benzoyl-L-phenylalanyl)-O-acetyl-L-phenylalaninol] | 53.42 µg/mL (≈ 120 µM) | 4.96 µg/mL (≈ 11.2 µM) |  |  |
| COC(=O)[C@H](Cc1ccccc1)NC(=O)[C@H](Cc1ccccc1)N(C(C)=O)C(=O)c1ccccc1 [Example 57, methyl N-(N-benzoyl-acetyl-L-phenylalanyl)-L-phenylalaninate] | 451.20 µg/mL (≈ 955 µM) | 59.5 µg/mL (≈ 126 µM) | 221 to 222 °C |  |
| COC(=O)[C@H](Cc1ccc(OC)cc1)NC(=O)[C@H](Cc1ccccc1)NC(=O)c1ccccc1 [Example 71, methyl N-(N-benzoyl-L-phenylalanyl)-O-methyl-L-tyrosinate] (Bz-Phe-Tyr(Me)-OMe) | 388.03 µg/mL (≈ 843 µM) | 6.62 µg/mL (≈ 14.4 µM) |  |  |
| O=C(N[C@@H](Cc1ccc(O)cc1)C(=O)N[C@H](CO)Cc1ccccc1)c1ccccc1Cl [Example 22, N-(N-2-chloro-benzoyl-L-tyrosyl)-L-phenylalaninol] | 346.68 µg/mL (≈ 765 µM) | 106 µg/mL (≈ 234 µM) | 168 to 169 °C |  |
| O=C(N[C@@H](Cc1ccc(O)cc1)C(=O)N[C@H](CO)Cc1ccccc1)c1ccc(Cl)cc1 [Example 19, N-(N-4-chloro-benzoyl-L-tyrosyl)-L-phenylalaninol] | 587.06 µg/mL (≈ 1300 µM) | 103 µg/mL (≈ 228 µM) |  |  |
| CCC(=O)Nc1ccc(C(=O)N[C@@H](Cc2ccccc2)C(=O)N[C@@H](Cc2ccc([N+](=O)[O-])cc2)C(=O)OC)cc1 [Example 38, methyl N-[N-(4-propionamido-benzoyl)-L-phenylalanyl]-4-nitro-L-phenylalaninate] ({Propionyl-4Abz}-Phe-[Phe(4-NO2)]-OMe) | 80.13 µg/mL (≈ 147 µM) | 2.39 µg/mL (≈ 4.37 µM) | 221 to 223 °C |  |
| O=C(N[C@@H](Cc1ccc(O)cc1)C(=O)N[C@H](CO)Cc1ccccc1)c1ccc(F)cc1 [Example 24, N-(N-4-fluoro-benzoyl-L-tyrosyl)-L-phenylalaninol] | 396.81 µg/mL (≈ 909 µM) | 96 µg/mL (≈ 220 µM) | 194.5 to 195.5 °C |  |

| SMILES | TC50 (2.2.15 cells) | IC50 (HBV DNA replication) | melting point | Inhibition of DNA Replication IC50 (HBV DNA replication) |
| --- | --- | --- | --- | --- |
| COC(=O)[C@H](Cc1ccc(O)cc1)NC(=O)[C@H](Cc1ccccc1)NC(=O)c1ccccc1 [Example 04, methyl N-(N-benzoyl-L-phenylalanyl)-L-tyrosinate] (Bz-Phe-Tyr-OMe) | 450.67 µg/mL (≈ 1010 µM) | 51.8 µg/mL (≈ 116 µM) | 184 to 186 °C |  |
| COC(=O)[C@H](Cc1ccccc1)NC(=O)[C@H](Cc1ccccc1)NC(=O)c1ccc(F)cc1 [Example 03, methyl N-(N-4-fluoro-benzoyl-L-phenylalanyl)-L-phenylalaninate] | 17.81 µg/mL (≈ 39.7 µM) | 0.63 µg/mL (≈ 1.4 µM) |  |  |
| COC(=O)[C@H](Cc1ccc(O)cc1)NC(=O)[C@H](Cc1ccccc1)NC(=O)c1ccccc1Cl [Example 11, methyl N-(N-2-chloro-benzoyl-L-phenylalanyl)-L-tyrosinate] | 500.00 µg/mL (≈ 1040 µM) |  | 164.5 to 167 °C |  |
| O=C(N[C@@H](Cc1ccccc1)C(=O)N[C@H](CO)Cc1ccccc1)c1ccc(Cl)cc1 [Example 07, N-(N-4-chloro-benzoyl-L-phenylalanyl)-L-phenylalaninol] | 28.74 µg/mL (≈ 65.8 µM) | 1.02 µg/mL (≈ 2.33 µM) | 211.5 to 214 °C |  |
| Cc1ccc(C(=O)N[C@@H](Cc2ccc(O)cc2)C(=O)N[C@H](CO)Cc2ccccc2)cc1 [Example 26, N-(N-4-methyl-benzoyl-L-tyrosyl)-L-phenylalaninol] | 472.10 µg/mL (≈ 1090 µM) |  | 193 to 195 °C |  |
| CN(C)CCOc1ccc(C(=O)N[C@@H](Cc2ccccc2)C(=O)N[C@H](CO)Cc2ccccc2)cc1 [Example 77, N-[N-4-(2-dimethylamino-ethoxyl)-benzoyl-L-phenylalanyl]-L-phenylalaninol] | 160.25 µg/mL (≈ 327 µM) |  |  | 13.51 µg/mL |
| COC(=O)[C@H](Cc1ccccc1)NC(=O)[C@H](Cc1ccc(O)cc1)NC(=O)c1ccc(F)cc1 [Example 25, methyl N-(N-4-fluoro-benzoyl-L-tyrosyl)-L-phenylalaninate] | 574.76 µg/mL (≈ 1240 µM) | 68.7 µg/mL (≈ 148 µM) | 186.5 to 189 °C |  |
| Cc1ccc(C(=O)N[C@@H](Cc2ccccc2)C(=O)N[C@H](CO)Cc2ccccc2)cc1 [Example 13, N-(N-4-methyl-benzoyl-L-phenylalanyl)-L-phenylalaninol] | 776.06 µg/mL (≈ 1860 µM) |  | 200 to 202 °C |  |
| O=C(N[C@@H](Cc1ccccc1)C(=O)N[C@@H](Cc1ccccc1)C(=O)O)c1ccccc1 [Example 86, N-(N-benzoyl-L-phenylalanyl)-L-phenylalanine] (Bz-Phe-Phe-OH) | 130.56 µg/mL (≈ 313 µM) | 10.6 µg/mL (≈ 25.4 µM) |  |  |
| CN(C)Cc1ccc(C(=O)N[C@@H](Cc2ccccc2)C(=O)N[C@H](CO)Cc2ccccc2)cc1 [Example 49, N-[N-(4-dimethylaminomethyl-benzoyl)-L-phenylalanyl]-L-phenylalaninol] | 86.23 µg/mL (≈ 188 µM) | 7.28 µg/mL (≈ 15.8 µM) |  |  |
| CN(C)c1ccc(C[C@H](NC(=O)c2ccccc2)C(=O)N[C@H](CO)Cc2ccccc2)cc1 [Example 84, N-(N-benzoyl-4-dimethylamino-L-phenylalanyl)-L-phenylalaninol] | 86.23 µg/mL (≈ 194 µM) | 1.44 µg/mL (≈ 3.23 µM) |  |  |
| COC(=O)[C@H](Cc1ccc(N)cc1)NC(=O)[C@H](Cc1ccccc1)NC(=O)c1ccccc1.Cl [Example 58, methyl N-(N-benzoyl-L-phenylalanyl)-4-amino-L-phenylalaninate hydrochloride] (Bz-Phe-[Phe(4-NH2)]-OMe) | 28.74 µg/mL |  | 173 to 175 °C |  |
| O=C(O)CCC(=O)Nc1ccc(C[C@H](NC(=O)c2ccccc2)C(=O)N[C@H](CO)Cc2ccccc2)cc1 [Example 83, N-[N-benzoyl-4-(3-carboxyl-propionamido)-L-phenylalanyl]-L-phenylalaninol] | >1000 µg/mL | 253 µg/mL (≈ 488 µM) |  |  |
| O=C(N[C@@H](Cc1ccc(O)cc1)C(=O)N[C@H](CO)Cc1ccccc1)c1ccccc1 [Example 21, N-(N-benzoyl-L-tyrosyl)-L-phenylalaninol] | 28.74 µg/mL (≈ 68.7 µM) |  | 216 to 217.5 °C |  |
| CC(=O)Nc1ccc(C[C@H](NC(=O)c2ccccc2)C(=O)N[C@H](COC(C)=O)Cc2ccccc2)cc1 [Example 54, N-(N-benzoyl-4-acetamido-L-phenylalanyl)-O-acetyl-L-phenylalaninol] | 43.11 µg/mL (≈ 85.9 µM) | 0.82 µg/mL (≈ 1.63 µM) |  |  |
| O=C(N[C@@H](Cc1ccc([N+](=O)[O-])cc1)C(=O)N[C@@H](Cc1ccccc1)C(=O)O)c1ccccc1 [Example 88, N-(N-benzoyl-4-nitro-L-phenylalanyl)-L-phenylalanine] (Bz-[Phe(4-NO2)]-Phe-OH) | 388.03 µg/mL (≈ 841 µM) | 25 µg/mL (≈ 54.2 µM) |  |  |
